Results published in paper PMC7356390, “Dehydrozingerone, a Curcumin Analog, as a Potential Anti-Prostate Cancer Inhibitor In Vitro and In Vivo” (Molecules, 2020).
Read-outs that look alike come from different tables or passages of the source.

Columns and labels:
PLS10 cells = test: Cell cycle analysis (Guava cycle assay); format: cell-based, rat; conditions: 48 h
Protocol: Cells were treated with Cur (0–20 μM) and DZG (0–200 μM) for 48 h. Cells were harvested for analysis of the cell cycle distribution by the Guava cycle (a,b), while cyclin D1 expression was determined by Western blot analysis (c,d). The level of protein expression was quantified by IMAGE J software. Data are presented as mean ± S.D. of three independent experiments. * p < 0.05 and ** p < 0.01 vs. control (one-way ANOVA, Dunnett’s multiple comparisons test, tested groups vs. control group). TEXT PRINTED IN THE PICTURE: (a) Cur: G1: 39.76±7.07 (Cur (μM): 5); S: 15.20±2.22 (Cur (μM): 5); G2/M: 45.02±8.26 (Cur (μM): 5); G1: 43.45±4.60 (Cur (μM): 10); S: 15.45±1.20 (Cur (μM): 10); G2/M: 40.90±6.08 (Cur (μM): 10); G1: 41.00±2.40 (Cur (μM): 15); S: 16.35±2.05 (Cur (μM): 15); G2/M: 42.60±4.67 (Cur (μM): 15); G1: 46.28±4.32 (Cur (μM): 20); S: 13.68±2.05 (Cur (μM): 20); G2/M: 43.10±5.50 (Cur (μM): 20) | (b) DZG: G1: 36.75±0.35 (DZG (μM): 50); S: 16.30±0.71 (DZG (μM): 50); G2/M: 46.95±0.35 (DZG (μM): 50); G1: 36.73±3.41 (DZG (μM): 100); S: 17.17±1.29 (DZG (μM): 100); G2/M: 46.10±2.78 (DZG (μM): 100); G1: 42.88±7.45 (DZG (μM): 150); S: 17.90±1.82 (DZG (μM): 150); G2/M: 39.25±6.13 (DZG (μM): 150); G1: 52.95±7.52 (DZG (μM): 200); S: 16.23±1.02 (DZG (μM): 200); G2/M: 31.00±6.67 (DZG (μM): 200) DOUBTS OF THE COPYIST ABOUT THIS PICTURE: Control columns (panel a: G1: 38.86±4.93, S: 14.52±1.90, G2/M: 46.60±5.74; panel b: G1: 35.93±2.45, S: 15.90±2.11, G2/M: 48.18±2.51) are printed but left out of lines, as Control is not a substance
The PLS10 cells (1.0 × 10^5 cells per well) were plated into a 6-well plate overnight. Then, cells were treated with increasing concentrations of Cur (0–20 µM) or DZG (0–200 µM) in the present of 0.5% DMSO (vehicle control) for the next 48 h. Cell morphology was investigated and photographed under a microscope. The cell cycle distribution was determined using a Guava cycle assay (Guava Technologies, Hayward, CA, USA) according to the manufacturer’s protocols. Briefly, the cells were removed by trypsinization, and the cell suspension was fixed in ice-cold 70% methanol at −20°C. After that, the methanol was removed, and the cells were washed with PBS before being stained with a Guava cycle reagent for 30 min. Cell cycle distribution was determined on a Guava PCA Instrument using Guava®ViacountTM Software (Merck Ltd., Darmstadt, Germany).

[1] = In vivo pharmacokinetics and tissue distribution (HPLC); parameters: species or system male BALB/c mice; conditions: for concentration at 30 min: 30 min after 100 mg/kg i.p.; for concentration at 60 min: 60 min after 100 mg/kg i.p.; for Tmax: serum, ip, read-out: time to maximum serum concentration after i.p. administration
Protocol: Figure 5 Levels of serum Cur and DZG recorded in mice after receiving a single dose of Cur or DZG (100 mg/kg body weight) by intraperitoneal (i.p.) injection. Serum concentrations of Cur and DZG were determined by high-performance liquid chromatography (HPLC) using a reversed-phase C18 column (Waters). The mobile phase values were 52% acetonitrile and 48% citric buffer. Each point represents the mean ± S.E. of three or four mice.
A comparison of the pharmacokinetics between Cur and DZG was determined using seven-week-old male BALB/c mice. The designated 32 mice were randomly divided into 3 groups, identified as the control, Cur and DZG groups. Mice were i.p. injected with 50% DMSO in NSS (vehicle control), Cur or DZG at concentrations of 100 mg/kg of body weight for each mouse. The mice were euthanized, and blood from each mouse was collected at 0, 30, 60 and 180 min after injection. Lungs, liver and kidneys were removed and frozen for detection of the levels of concentrations of Cur and DZG.
The concentrations of Cur or DZG in the serum or organ tissues were determined using the HPLC method. The tissues were homogenized in 200 μl of 50% acetonitrile and vortexed for 5 min. Samples were centrifuged at 96.5 g at 4°C for 20 min. Fifty microliters of serum or tissue homogenate was mixed with 1.5-mg/mL trichloroacetic acid in 100 µl of acetonitrile. The substance was then centrifuged at 96.5 g at 4°C for 20 min. Sixty microliters of the supernatant was collected and subjected to HPLC using a reversed-phase C18 column (Waters Corporation, Milford, MA, USA). The mobile phase was composed of 52% acetonitrile and 48% citric buffer (1% w/v citric acid, pH 3.0), and the flow rate was set at 1 mL/min. The detection wavelength for Cur and DZG were 425 and 340 nm, respectively. Concentrations of Cur and DZG in the serum were calculated and compared to the standard curve (0–3200 ng/mL). The limits of quantification for Cur and DZG were 100 and 50 ng/mL, respectively. The extraction recovery from the plasma was approximately 90% for both Cur and DZG.

[2] = male, BALB/c, mouse, kidney, intraperitoneal, 100 mg/kg body weight, mean ± S.E., read-out: tissue concentration, Kidneys
[3] = male, BALB/c, mouse, liver, intraperitoneal, 100 mg/kg body weight, mean ± S.E., read-out: tissue concentration, Liver
[4] = male, BALB/c, mouse, lung, intraperitoneal, 100 mg/kg body weight, mean ± S.E., read-out: tissue concentration, Lung
[5] = male, BALB/c, mouse, single dose 100 mg/kg i.p., mice
[6] = single dose 100 mg/kg i.p., mice

Row | Structure (SMILES) | G1 phase cell population (PLS10 cells; Cur 20 µM) | concentration at 30 min [1, 2] | concentration at 60 min [1, 2] | concentration at 30 min [1, 3] | concentration at 30 min [1, 4] | Tmax [1, 5] | maximum serum concentration [1, 6] | time at detectable concentrations in the serum after i.p. injection [1, 6] | G1 phase cell population (PLS10 cells; DZG 150 µM) | G2/M phase cell population (PLS10 cells; DZG 150 µM) | G1 phase cell population (PLS10 cells; DZG 200 µM) | G2/M phase cell population (PLS10 cells; DZG 200 µM) | concentration at 180 min ([1]; male, BALB/c, mouse, kidney, intraperitoneal, 100 mg/kg body weight, 180 min after 100 mg/kg i.p., mean ± S.E., read-out: tissue concentration, Kidneys) | concentration at 60 min [1, 3] | concentration at 60 min [1, 4] | time of highest concentration in the kidneys after injection [1, 6]
1 | COc1cc(/C=C/C(=O)CC(=O)/C=C/c2ccc(O)c(OC)c2)ccc1O [Cur, Curcumin] | 46% | 1010 ± 550 ng/g | 530 ± 190 ng/g | 2600 ± 780 ng/g | 1150 ± 1300 ng/g | ≤ 30 min | 2.28 ± 2.42 µg/mL | ≤ 1 h | – | – | – | – | – | – | – | –
2 | COc1cc(/C=C/C(C)=O)ccc1O [DZG, (E)-4-(4-hydroxy-3-methoxyphenyl)-but-3-en-2-one] | – | 5920 ± 3800 ng/g | 9750 ± 4080 ng/g | 920 ± 670 ng/g | 1410 ± 740 ng/g | ≤ 30 min | 4.87 ± 2.74 µg/mL | up to 3 h | 43% | 39% | 53% | 31% | 860 ± 220 ng/g | 410 ± 110 ng/g | 720 ± 280 ng/g | 1 h
